{"source": "paper PMC5282547", "about": "“The Proline/Arginine Dipeptide from Hexanucleotide Repeat Expanded C9ORF72 Inhibits the Proteasome” (eNeuro, 2017)", "key": {"[1]": {"tested_on": "mixed spinal cord cultures", "test": "Cellular accumulation and disposal of HA-tagged DPR (immunoblot of cell lysates, continuous exposure or 2-h pulse-chase)", "method": "Confluent dishes of astrocyte neuron cocultures at 37°C had volumes equalized to 2 ml of cell culture media each. Approximately 300 μl of media from each dish was removed and pooled with other dishes, PR20 stock solution was added, and the mixture was then added back to the corresponding culture dish, so that each dish contained a final concentration of 2 μM. All plates were incubated with PR20 for 48 h.\nLysis buffer was prepared containing 1% (v/v) protease inhibitor cocktail, 1% (v/v) PMSF, and 1% (v/v) leucine in 1% RIPA buffer solution on ice. Culture dishes were washed once with ice-cold PBS to remove any remaining media. A total of 125 μl (35-mm dish), 150 μl (6-well plate), or 250 μL (60-mm dish) of lysis buffer was added to each plate, and cells were scraped into a cold 1.5-ml tube. Samples were sonicated for 30 s at 20% intensity, placed on a rotator at 4°C for 20 min, and then centrifuged for 15 min at 13,200 rpm. Supernatant was then removed from each tube for further analysis.\nWe investigated the fate of PR20 in mixed spinal cord cultures through immunoblotting and immunocytochemistry. […] To gain further insight into the kinetics of the observed decrease in PR20 levels in cell lysates over time, we pulsed cells with 2 µM PR20 for 2 h, washed, replaced with fresh media (lacking PR20), and made cell lysates at regular intervals thereafter. […] To more easily follow GR20 by immunoblotting, we applied 10 µM GR20 to cultures and performed the same kinetic analysis as described in Figure 1D."}, "[2]": {"tested_on": "motor neurons", "test": "Motor neuron survival with IU1 co-treatment", "assay_type": "cell-based, rat", "conditions": "PR20 treatment without IU1, 5 d", "experimental": "Days in vitro (DIV)14 mixed spinal cord cultures were exposed to PR20 or GR20 by addition of synthetic peptide to the media one time. Cultures were fixed 5 d later with freshly prepared 4% paraformaldehyde for 20 min, washed extensively with 0.1 M PBS, pH 7.4, and immunostained with SMI32 to identify motor neurons. […] Motor neurons were counted in three nonoverlapping, randomly selected fields on a coverslip using a 5[times objective, and the values from a single coverslip averaged.\nFor experiments involving IU1, DIV14 cultures were treated with PR20 or its vehicle, and every other day, IU1 (or vehicle) was added to the culture media to achieve a final concentration of 5 µM. At DIV19, cultures were fixed and motor neuron number determined as described above."}, "[3]": {"tested_on": "purified affinity-purified human proteasomes", "assay_type": "biochemical", "conditions": "for Δ0–5 of Ub-Sic1 signal compared with the no PR20 group: 20 nM Ub-Sic1, n = 3, p < 0.05", "experimental": "Polyubiquitylated Sic1 proteins with PY degron motifs and T7 tag (Ub-Sic1) was prepared as previously described by [Choi et al. (2016)]. Different concentrations of PR20 peptides (0, 50, or 500 nM) and purified affinity-purified human proteasomes (5 nM) were preincubated 20 min in proteasome assay buffer [50 mM Tris-HCl (pH 7.5), 100 mM NaCl, 10% glycerol, 2 mM ATP, 10 mM MgCl2, and 1 mM DTT] on ice, and 20 nM reconstituted Ub-Sic1 was subsequently added. Degradation of Ub-Sic1 and PR20 peptides was monitored by immunoblotting using anti-T7 and anti-HA antibodies, respectively. Band intensities were quantified using ImageJ software (version 1.48k, NIH) from three independent immunoblotting assays (n = 3)."}, "[4]": {"tested_on": "human proteasomes", "test": "Direct interaction with human proteasomes (streptavidin pull-down, anti-HA immunoblot)", "assay_type": "binding", "conditions": "2 µM HA-tagged peptide, HEK293T extracts with HTBH-tagged β4 subunits, 2 h at 4 °C", "experimental": "Whole-cell extracts from a stable HEK293T cell line harboring HTBH-tagged β4 subunits were prepared as in Han et al. (2014) and incubated with HA-tagged PR20 or GR20 peptides (2 µM) 2 h at 4 °C. The resulting proteasome-dipeptide complexes were pull-downed with streptavidin agarose beads (Millipore) for 3 h at 4 °C. Unbound proteasomes in the supernatants were discarded, and the pellets were mixed with 2× SDS sample buffer. Different amounts of samples were resolved by SDS-PAGE/immunoblotting against HA and a proteasome core particle α3 subunit."}, "[5]": {"tested_on": "Dendra2", "test": "Optical pulse labeling of Dendra2", "assay_type": "cell-based, rat", "conditions": "2 µM peptide; vehicle 29.6 h; not significantly different from vehicle", "experimental": "Primary spinal neurons were dissected from E15 rat pups and cultured at a density of 2.5 × 10^5 cells/ml on a laminin/poly-lysine-coated 96-well plate in motor neuron media. Four days after plating, neurons were transfected with Lipofectamine 2000 (Invitrogen). DNA-Lipofectamine mixtures were incubated with neurons for 20 min followed by rinsing. Neurons were then placed in 100 µL of conditioned media that was collected immediately prior to transfection and half fresh motor neuron media containing 4 µM PR20, resulting in a final concentration of 2 µM PR20.\nOptical pulse labeling experiments were performed using an automated microscopy platform previously described by [Arrasate et al. (2004)] and [Barmada et al. (2014)]. A Nikon Eclipse Ti inverted microscope equipped with a PerfectFocus system, 20× objective lens and an Andor iXon3 897 EMCCD camera were used to acquire images. Samples were illuminated with a Sutter Instruments Lamba XL lamp. The microscope and related components were encased in custom-built plexiglass enclosure set to maintain the temperature at 37°C and CO2 at 5%. Semrock GFP and TRITC filters were used for excitation and detection. A Semrock 405-nm long-pass filter was used for photoactivation. Image acquisition and stage movements were accomplished in an automated fashion using µManager and original code written in BeanShell. For all experiments, photoconversion occurred 24 h following transfection. GFP and TRITC images were acquired immediately following activation and subsequently every 2 h for 12 h. Images were acquired in a similar 12-h window starting 48 h after PR20 treatment. Using in-house image analysis scripts, neuronal cell bodies were identified based on their fluorescent intensity and morphology, and a ROI was drawn around the perimeter of each cell at each time. Single-cell TRITC intensity values were recorded and used to fit a first order exponential decay curve for individual neurons and calculate a Dendra2-light chain 3 (LC3) half-life for each cell. […]"}, "[6]": {"tested_on": "motor neurons", "test": "Motor neuron survival in mixed spinal cord cultures (SMI32 counts), LD50 determination", "assay_type": "cell-based, rat", "experimental": "Mixed spinal cord neuron cultures were prepared as described previously ([Mojsilovic-Petrovic et al., 2006]). Briefly, an astrocyte feeder layer was prepared from the cortex of newborn Sprague Dawley rat pups [postnatal day 2 (P2)] and grown to ∼80% confluency. Subsequently, dissociated embryonic day 15 (E15) spinal cord neurons were added. One to two days later, AraC ([…]) (catalog #C6645; Sigma) was added for 24 h to arrest astrocyte proliferation. Cultures were maintained in glia-conditioned medium supplemented with the following trophic factors (1.0 ng/ml each): human neurotrophin-3, human neurotrophin-4, human brain-derived neurotrophic factor, and rat ciliary neurotrophic factor (Alomone Labs). Half of the culture medium was replaced on a biweekly basis.\nDays in vitro (DIV)14 mixed spinal cord cultures were exposed to PR20 or GR20 by addition of synthetic peptide to the media one time. Cultures were fixed 5 d later with freshly prepared 4% paraformaldehyde for 20 min, washed extensively with 0.1 M PBS, pH 7.4, and immunostained with SMI32 to identify motor neurons. Immunopositive cells >25 µm in diameter are motor neurons based on their costaining for peripherin, ChAT, and islet 1/2 ([Mojsilovic-Petrovic et al., 2006]). Motor neurons were counted in three nonoverlapping, randomly selected fields on a coverslip using a 5[times objective, and the values from a single coverslip averaged. The results of 3-5 independently treated coverslips were the basis and means and variance used in statistical analysis. Each experiment was repeated with independently generated culture 4+ times ([Mojsilovic-Petrovic et al., 2006]).\nMotor neuron survival 5 d later was determined. Once the approximate LD50 was determined, we repeated the analysis with more closely spaced concentrations for a more precise definition of the LD50. Determination of the LD50 of MG132 was accomplished in an identical manner."}, "[7]": {"conditions": "2 µM in media, continuous exposure"}}, "note": "Where two headings read alike, the source gives them in different places. Where no end group is shown, it is not given here.", "data": [{"sequence": "PRPRPRPRPRPRPRPRPRPRPRPRPRPRPRPRPRPRPRPRYPYDVPDYA [PR20]", "values": [{"measurement": "time of maximum immunoblot signal in cell lysates", "setting": "[1]; [7]", "value": "1.0 to 2.0", "unit": "h"}, {"measurement": "time point at which immunoblot signal is undetectable", "setting": "[1]; [7]", "value": 48, "unit": "h"}, {"measurement": "time at which peptide is first detectable in cell lysates", "setting": "[1]; 2 µM in media, continuous exposure, anti-HA immunoblot", "value": "approximately 0.5 h"}, {"measurement": "decrement in peptide abundance with versus without bafilomycin A1 in the chase media", "setting": "[1]; 2-h pulse with 2 µM, chase with Baf A1 400 nM", "value": "the same"}, {"measurement": "loss of peptide with MG132 versus vehicle in the chase media", "setting": "[1]; 2-h pulse with 2 µM, chase with MG132 5 µM", "value": "indistinguishable"}, {"measurement": "lysate fractions with detectable Western blot signal at the 2-h time point", "setting": "[1]; 2-h pulse-chase, 2 µM", "value": "soluble and insoluble fractions"}, {"measurement": "time point by which signal diminishes to a barely detectable level", "setting": "[1]; 2-h pulse-chase, 2 µM", "value": 6, "unit": "h"}, {"measurement": "half-life of dipeptide in cells", "setting": "[1]; immunoblot of mixed spinal cord culture lysates", "value": "on the orders of hours"}, {"measurement": "loss of motor neurons", "setting": "[2]", "value": "approximately 50%"}, {"measurement": "degradation of the peptide by purified 26S proteasomes", "setting": "[3]; 0, 5 and 15 min, anti-HA immunoblot, pH 7.5 assay buffer with ATP", "value": "not itself degraded"}, {"measurement": "Δ0–5 of Ub-Sic1 signal compared with the no PR20 group", "setting": "[3]; 1:10 proteasomes:PR20 (5 nM proteasomes, 50 nM PR20)", "value": "statistically significant less"}, {"measurement": "Δ0–15 of Ub-Sic1 signal compared with the no PR20 group", "setting": "[3]; 1:10 proteasomes:PR20, n = 3, p < 0.05", "value": "statistically significantly less"}, {"measurement": "Δ0–5 of Ub-Sic1 signal compared with the no PR20 group", "setting": "[3]; 1:100 proteasomes:PR20 (5 nM proteasomes, 500 nM PR20)", "value": "statistically significant less"}, {"measurement": "Δ0–15 of Ub-Sic1 signal compared with the no PR20 group", "setting": "[3]; 1:100 proteasomes:PR20, n = 3, p < 0.05", "value": "statistically significantly less"}, {"measurement": "association with proteasomes in pull-down", "setting": "[4]", "value": "associates with proteasomes"}, {"measurement": "Dendra2 half-life", "setting": "[5]", "value": 30.5, "unit": "h"}, {"measurement": "motor neuron death at the 48-h time point", "setting": "[6]; 2 µM PR20, 48 h", "value": "No significant motor neuron death"}, {"measurement": "LD50, death of motor neurons", "setting": "[6]; single application to DIV14 mixed spinal cord cultures on astrocyte feeder layer, motor neuron survival 5 d later", "value": 2.0, "unit": "µM"}]}]}
